According to patent US12479974B2, “Composition and method for microbial control for use with polymers” (MICROBAN PRODUCTS COMPANY, priority 2022, dated 2025):
Converted amounts (≈) assume the structure as drawn.

Experiments:
Staphylococcus aureus = test: Minimum inhibitory concentration (MIC); type: cell-based; conditions: against Staphylococcus aureus
Escherichia coli = test: Minimum inhibitory concentration (MIC); type: cell-based; conditions: against Escherichia coli
[1] = test system: Escherichia coli (gram-negative bacteria); test: Antimicrobial efficacy of polymer samples, ISO22196 test method
[2] = test system: Staphylococcus aureus (gram-positive bacteria); test: as above; conditions: GBA alone at more than 4500 ppm in TPU, Table 3 (S. aureus)

`OCCCc1ccccc1` [3-phenylpropanol] was tested, and the MIC (Staphylococcus aureus) was 4000 µg/mL (≈ 29.4 mM) and the MIC (Escherichia coli) was 3000 to 4000 µg/mL (≈ 22 to 29.4 mM).
`O=C(O)c1ccccc1` [GBA, benzoic acid] was tested, and the “efficacy against E. coli” value ([1]; 2500 ppm GBA in TPU) was “no efficacy”, the log reduction ([1]; 4500 ppm GBA alone in TPU, E. coli) was “less than 1” and the “log reduction (consistent antimicrobial efficacy)” value ([1]; 5250 ppm level in TPU, E. coli) was > 1. The antimicrobial efficacy [2] was “did not exhibit antimicrobial efficacy”.
